Test results reported in patent US7279161B2, “Factor IX/factor IXa activating antibodies and antibody derivatives” (Baxter Aktiengesellschaft, priority 1999, dated 2007).
Entries after “also recorded” stand apart in the source; their conditions may differ.

Key:
factor IXa = target: T1, factor IXa (Bos taurus, UniProt P00741); assay: Chromogenic FVIII assay (COATEST VIII:C/4) with the kit's FIXa/FX; assay type: biochemical, bovine; settings: bovine FIXa and FX only; A1/3 24 μM
T1 construct: purchased Chromogenix COATEST VIII:C/4
Protocol: In order to assay the FVIII-like activity of anti-FIXa antibodies secreted by hybridoma cells, the commercially available test-kit COATEST VIII:C/4® (Chromogenix) was employed. The assay was done essentially as described by the manufacturer with the following modifications:
To allow high throughput screening, the assay was downscaled to microtiter plate format. Briefly, 25 μl aliquots of hybridoma supernatants were transferred to microtiter plate (Costar, #3598) wells and warmed to 37° C. Chromogenic substrate (S-2222), synthetic thrombin inhibitor (I-2581), factor (F) IXa and FX were reconstituted in sterile water and FIXa/FX was mixed with phospholipids according to the supplier's protocol. Per reaction, 50 μl of the phospholipid/FIXa/FX solution were combined with 25 μl CaCl2 (25 mM) and 50 μl of the substrate/inhibitor cocktail. To start the reaction, 125 μl of the premix were added to the hybridoma supernatant in the microtiter plates and incubated at 37° C. Absorbency at 405 nm and 490 nm of the samples was read at various times (30 min to 12 h) against a reagent blank (MLW, cell culture medium instead of hybridoma supernatant) in a Labsystems iEMS Reader MF™ microtiter plate reader. FVIII-like activity of the samples was calculated by comparing the absorbency of the samples against the absorbency of a diluted FVIII reference standard (IMMUNO AG #5T4AR00) using GENESIS™ software.
Several anti-FIX/FIXa antibody producing hybridoma clones were subcloned up to four times and the resulting monoclonal hybridoma cell line used to produce monoclonal antibody containing supernatant. IgG isotype antibodies derived from these supernatants were purified over affinity columns and dialyzed against TBS (see above). IgM antibodies were used as unpurified supernatant fractions. […] Absorbance at 405 nm and 490 nm of the samples was read at various times (5 min to 6 h) against a reagent blank (cell culture medium instead of hybridoma supernatant) in a Labsystems iEMS Reader MF™ microtiter plate reader using GENESIS™ software. […]

FVIII inhibitor plasma = assay: aPTT based one stage clotting assay in FVIII inhibitor plasma; assay type: biochemical; settings: inhibitor plasma 8.1 Bethesda Units per ml
Protocol: […] […] […] After a 4 minute incubation, the reaction was started by the addition of 100 μl CaCl2 (25 mM). To ensure equal conditions, the experiments employing FVIII deficient plasma and FVIII inhibitor plasma were done side by side.
To assay for the procoagulant activity of peptide A1/3 in FVIII inhibitor plasma the following experiment was carried out. We performed a standard aPTT based one stage clotting assay, but instead of FVIII deficient plasma we employed FVIII inhibitor plasma.

T1 sequence (P00741 47-192 limits assumed): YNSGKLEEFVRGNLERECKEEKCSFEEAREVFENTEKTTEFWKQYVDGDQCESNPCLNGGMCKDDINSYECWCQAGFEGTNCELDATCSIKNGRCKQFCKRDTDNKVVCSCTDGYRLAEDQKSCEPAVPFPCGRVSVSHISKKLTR
T1 sequence (P00741 228-462 limits assumed): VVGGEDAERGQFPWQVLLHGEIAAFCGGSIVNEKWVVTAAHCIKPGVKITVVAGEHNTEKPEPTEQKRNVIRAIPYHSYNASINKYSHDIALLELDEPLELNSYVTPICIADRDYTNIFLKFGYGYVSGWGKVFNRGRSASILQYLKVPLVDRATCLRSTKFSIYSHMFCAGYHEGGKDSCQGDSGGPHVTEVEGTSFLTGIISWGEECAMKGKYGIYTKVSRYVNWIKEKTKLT

RRREGGGYYVNWYFDRRR [A1/3]
chromogenic FVIII-like activity (FXa generation) without human FIXa (factor IXa): does not react with bovine FIXa and FX; also recorded: does not give rise to any FXa generation | average clotting time (FVIII inhibitor plasma; 1.25 μM, 2.2 nM FIXa): 91 s | clotting time (FVIII inhibitor plasma; 1.25 μM, 2.2 nM FIXa, duplicate 1): 91.3 s | clotting time (FVIII inhibitor plasma; 1.25 μM, 2.2 nM FIXa, duplicate 2): 91.4 s | average clotting time (FVIII inhibitor plasma; 1.25 μM, w/o FIXa): 104 s | clotting time (FVIII inhibitor plasma; 1.25 μM, w/o FIXa, duplicate 1): 104.5 s | clotting time (FVIII inhibitor plasma; 1.25 μM, w/o FIXa, duplicate 2): 104.3 s | average clotting time (FVIII inhibitor plasma; 2.5 μM, 2.2 nM FIXa): 90 s | clotting time (FVIII inhibitor plasma; 2.5 μM, 2.2 nM FIXa, duplicate 1): 90.2 s | clotting time (FVIII inhibitor plasma; 2.5 μM, 2.2 nM FIXa, duplicate 2): 90.5 s | average clotting time (FVIII inhibitor plasma; 2.5 μM, w/o FIXa): 106 s | clotting time (FVIII inhibitor plasma; 2.5 μM, w/o FIXa, duplicate 1): 106.1 s | clotting time (FVIII inhibitor plasma; 2.5 μM, w/o FIXa, duplicate 2): 105.3 s | average clotting time (FVIII inhibitor plasma; 5 μM, 2.2 nM FIXa): 82 s | clotting time (FVIII inhibitor plasma; 5 μM, 2.2 nM FIXa, duplicate 1): 81 s | clotting time (FVIII inhibitor plasma; 5 μM, 2.2 nM FIXa, duplicate 2): 82 s | average clotting time (FVIII inhibitor plasma; 5 μM, w/o FIXa): 101 s | clotting time (FVIII inhibitor plasma; 5 μM, w/o FIXa, duplicate 1): 101.5 s | clotting time (FVIII inhibitor plasma; 5 μM, w/o FIXa, duplicate 2): 101.1 s | average clotting time (FVIII inhibitor plasma; 7.5 μM, 2.2 nM FIXa): 70 s | clotting time (FVIII inhibitor plasma; 7.5 μM, 2.2 nM FIXa, duplicate 1): 68.8 s | clotting time (FVIII inhibitor plasma; 7.5 μM, 2.2 nM FIXa, duplicate 2): 70.9 s | average clotting time (FVIII inhibitor plasma; 7.5 μM, w/o FIXa): 93 s | clotting time (FVIII inhibitor plasma; 7.5 μM, w/o FIXa, duplicate 1): 93.7 s | clotting time (FVIII inhibitor plasma; 7.5 μM, w/o FIXa, duplicate 2): 92.7 s | average clotting time (FVIII inhibitor plasma; 10 μM, 2.2 nM FIXa): 62 s | clotting time (FVIII inhibitor plasma; 10 μM, 2.2 nM FIXa, duplicate 1): 61.3 s | clotting time (FVIII inhibitor plasma; 10 μM, 2.2 nM FIXa, duplicate 2): 61.8 s | average clotting time (FVIII inhibitor plasma; 10 μM, w/o FIXa): 88 s | clotting time (FVIII inhibitor plasma; 10 μM, w/o FIXa, duplicate 1): 88.4 s | clotting time (FVIII inhibitor plasma; 10 μM, w/o FIXa, duplicate 2): 87.9 s | average clotting time (FVIII inhibitor plasma; 12.5 μM, 2.2 nM FIXa): 61 s | clotting time (FVIII inhibitor plasma; 12.5 μM, 2.2 nM FIXa, duplicate 1): 61 s | clotting time (FVIII inhibitor plasma; 12.5 μM, 2.2 nM FIXa, duplicate 2): 60.2 s | average clotting time (FVIII inhibitor plasma; 12.5 μM, w/o FIXa): 86 s | clotting time (FVIII inhibitor plasma; 12.5 μM, w/o FIXa, duplicate 1): 85.8 s | clotting time (FVIII inhibitor plasma; 12.5 μM, w/o FIXa, duplicate 2): 85.3 s
